Reference: US20250042895A1, “INHIBITORS OF ULK1 AND METHODS OF USE” (H. LEE MOFFITT CANCER CENTER AND RESEARCH INSTITUTE, INC., priority 2021, published 2025)

Experiments:
[1] = target: T1, ULK1 kinase (Homo sapiens, UniProt O75385); assay: Radiometric HotSpot kinase assay (Reaction Biology); format: biochemical; details: activity-based ULK1 kinase assay
T1 construct: purchased Reaction Biology
T1 sequence (O75385 1-1050): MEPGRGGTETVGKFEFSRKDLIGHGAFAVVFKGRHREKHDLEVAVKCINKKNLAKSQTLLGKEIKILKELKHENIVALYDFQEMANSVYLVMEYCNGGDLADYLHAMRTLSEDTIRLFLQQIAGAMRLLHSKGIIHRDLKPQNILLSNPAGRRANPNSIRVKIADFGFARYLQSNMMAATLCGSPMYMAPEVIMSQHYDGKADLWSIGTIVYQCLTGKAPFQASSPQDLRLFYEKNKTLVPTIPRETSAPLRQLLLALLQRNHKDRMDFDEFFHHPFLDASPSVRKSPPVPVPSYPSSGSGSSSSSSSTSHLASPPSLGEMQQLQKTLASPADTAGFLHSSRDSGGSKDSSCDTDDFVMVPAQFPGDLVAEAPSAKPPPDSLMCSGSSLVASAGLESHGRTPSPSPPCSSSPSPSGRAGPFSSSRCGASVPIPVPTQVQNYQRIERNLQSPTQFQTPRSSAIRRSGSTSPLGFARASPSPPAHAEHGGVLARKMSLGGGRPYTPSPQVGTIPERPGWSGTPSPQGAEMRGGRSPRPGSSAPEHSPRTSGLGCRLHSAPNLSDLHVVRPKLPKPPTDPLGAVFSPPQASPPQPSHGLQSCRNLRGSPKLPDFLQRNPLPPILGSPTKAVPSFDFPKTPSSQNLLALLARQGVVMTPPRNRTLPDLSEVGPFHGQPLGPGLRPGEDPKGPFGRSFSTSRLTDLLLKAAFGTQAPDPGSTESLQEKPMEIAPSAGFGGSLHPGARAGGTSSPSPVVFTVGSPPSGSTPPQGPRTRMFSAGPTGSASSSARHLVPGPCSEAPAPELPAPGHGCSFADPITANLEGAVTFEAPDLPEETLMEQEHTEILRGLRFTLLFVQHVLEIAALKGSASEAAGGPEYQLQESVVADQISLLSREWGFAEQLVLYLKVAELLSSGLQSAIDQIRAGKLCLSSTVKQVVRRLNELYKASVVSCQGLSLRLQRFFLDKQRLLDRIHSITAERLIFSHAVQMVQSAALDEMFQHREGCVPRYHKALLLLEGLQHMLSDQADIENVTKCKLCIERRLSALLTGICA

[2] = target: T2, GST-ULK1 (Homo sapiens, UniProt O75385); assay: LanthaScreen ULK1 inhibitor assay; format: biochemical; details: 5 nM GST-ULK1, 30 nM tracer, 20 μM ATP, 1 hr room temperature
T2 sequence (O75385 1-1050): T1 sequence (O75385 1-1050)

[3] = target: T3, ULK1 kinase domain (Homo sapiens, UniProt O75385); assay: Differential scanning fluorimetry (thermal shift); format: binding; details: 2 μM ULK1 kinase domain, 50 μM compound, vs DMSO reference
T3 construct: The protein expression construct of ULK1 kinase domain (1-283) was cloned; 6His-Sumo (N, cleaved yes); made in house; host or cells: E. coli BL21 star, co-expressed with lambda phosphatase
T3 sequence (O75385 1-283): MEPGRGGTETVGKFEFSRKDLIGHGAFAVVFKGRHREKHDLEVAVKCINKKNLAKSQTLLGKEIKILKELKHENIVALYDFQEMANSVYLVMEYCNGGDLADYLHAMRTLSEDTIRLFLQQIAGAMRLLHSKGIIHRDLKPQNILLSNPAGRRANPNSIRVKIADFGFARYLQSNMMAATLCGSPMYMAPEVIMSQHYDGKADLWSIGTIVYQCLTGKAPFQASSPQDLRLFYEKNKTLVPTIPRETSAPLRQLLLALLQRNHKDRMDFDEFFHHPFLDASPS

Row | Compound | IC50 [1] | IC50 [2] | ΔTm at 50 µM [3]
1 | FC1(F)CCN(c2c(C(F)(F)F)cnc3[nH]c(C4=CCOCC4)cc23)CC1 [Compound 93, 4-(4,4-Difluoropiperidin-1-yl)-2-(3,6-dihydro-2H-pyran-4-yl)-5-(trifluoromethyl)-1H-pyrrolo[2,3-b]pyridine] | 7070 nM | 8280 nM | 2.03 °C
2 | CC[C@H](CO)NC(=O)c1cccc(-c2cnc3[nH]c(-c4ccc(F)cc4)cc3c2)n1 [Compound 56, (R)-6-(2-(4-Fluorophenyl)-1H-pyrrolo[2,3-b]pyridin-5-yl)-N-(1-hydroxybutan-2-yl)-picolinamide] | 72 nM | 80 nM | 6.85 °C
3 | O=C(c1nc(-c2cnc3[nH]c(-c4ccc(F)cc4)cc3c2)cs1)N1CC(F)(F)C1 [Compound 75, (3,3-difluoroazetidin-1-yl)(4-(2-(4-fluorophenyl)-1H-pyrrolo[2,3-b]-pyridin-5-yl)thiazol-2-yl)-methanone] | – | – | 3 °C
4 | CN1CC=C(c2cc3c(N4CC(F)(F)C4)c(C(F)(F)F)cnc3[nH]2)CC1 [Compound 100, 4-(3,3-difluoroazetidin-1-yl)-2-(1-methyl-1,2,3,6-tetrahydropyridin-4-yl)-5-(trifluoromethyl)-1H-pyrrolo[2,3-b]pyridine] | 171 nM | 218 nM | 4.99 °C
5 | FC(F)(F)c1cnc2[nH]c(C3CCOCC3)cc2c1NCCN1CCOCC1 [Compound 88, N-(2-morpholinoethyl)-2-(tetrahydro-2H-pyran-4-yl)-5-(trifluoromethyl)-1H-pyrrolo-[2,3-b]pyridin-4-amine] | 4450 nM | 4520 nM | 2.37 °C
6 | FC(F)(F)c1cnc2[nH]c(C3CCOCC3)cc2c1NC1CCNC1 (stereo not shown) [Compound 83, N-(pyrrolidin-3-yl)-2-(tetrahydro-2H-pyran-4-yl)-5-(trifluoromethyl)-1H-pyrrolo[2,3-b]-pyridin-4-amine] | 401 nM | 208 nM | 6.81 °C
7 | O=C(NC[C@H](O)CO)c1cccc(-c2cnc3[nH]c(-c4ccc(F)cc4)cc3c2)c1 [Compound 51, (S)—N-(2,3-Dihydroxypropyl)-3-(2-(4-fluorophenyl)-1H-pyrrolo[2,3-b]pyridin-5-yl)-benzamide] | 184 nM | 387 nM | 4.76 °C
8 | CC[C@H](CO)NC(=O)c1cccc(-c2cnc3[nH]c(-c4ccc(F)cc4)cc3c2)c1 [Compound 53, (R)-3-(2-(4-Fluorophenyl)-1H-pyrrolo[2,3-b]pyridin-5-yl)-N-(1-hydroxybutan-2-yl)benzamide] | 66 nM | 94 nM | 3.11 °C
9 | CN1CCC(c2cc3c(NCCN4CCOCC4)c(C(F)(F)F)cnc3[nH]2)CC1 [Compound 95, 2-(1-methylpiperidin-4-yl)-N-(2-morpholinoethyl)-5-(trifluoromethyl)-1H-pyrrolo[2,3-b]pyridin-4-amine] | 758 nM | 917 nM | 0.49 °C
10 | O=C(NCC(O)C(F)(F)F)c1cccc(-c2cnc3[nH]c(-c4ccc(F)cc4)cc3c2)c1 (stereo not shown) [Compound 50, 3-(2-(4-Fluorophenyl)-1H-pyrrolo[2,3-b]pyridin-5-yl)-N-(3,3,3-trifluoro-2-hydroxy-propyl)benzamide] | 91 nM | 86 nM | 4.4 °C
11 | CN1CCC(c2cc3c(NCCCN4CCCC4)c(C(F)(F)F)cnc3[nH]2)CC1 [Compound 94, 2-(1-methylpiperidin-4-yl)-N-(3-(pyrrolidin-1-yl)propyl)-5-(trifluoromethyl)-1H-pyrrolo[2,3-b]pyridin-4-amine] | – | – | 0.76 °C
12 | FC(F)(F)c1cnc2[nH]c(C3=CCNCC3)cc2c1NCCCN1CCCC1 [Compound 121] | – | 320 nM | –
13 | O=C(NC(CO)CO)c1cccc(-c2cnc3[nH]c(-c4ccc(F)cc4)cc3c2)n1 [Compound 55, N-(1,3-Dihydroxypropan-2-yl)-6-(2-(4-fluorophenyl)-1H-pyrrolo[2,3-b]pyridin-5-yl)picolinamide] | 44 nM | 74 nM | 8.56 °C
14 | FC1(F)CN(c2c(C(F)(F)F)cnc3[nH]c(C4=CCNCC4)cc23)C1 [Compound 115] | – | 81 nM | –
15 | FC(F)(F)c1cnc2[nH]c(C3=CCCNC3)cc2c1NCCN1CCOCC1 [Compound 116] | – | 201 nM | –
16 | O=C(c1cc(-c2cnc3[nH]c(-c4ccc(F)cc4)cc3c2)cs1)N1CCC(NC(=O)C(F)(F)F)C1 (stereo not shown) [Compound 24, 2,2,2-Frifluoro-N-(1-(4-(2-(4-fluorophenyl)-1H-pyrrolo[2,3-b]pyridin-5-yl)thiophene-2-carbonyl)pyrrolidin-3-yl)acetamide] | – | – | 0.4 °C

Row | Compound | IC50 [1] | IC50 [2] | ΔTm at 50 µM [3]
17 | FC(F)(F)c1cnc2[nH]c(C3=CCNCC3)cc2c1NCCN1CCOCC1 [Compound 118] | – | 126 nM | –
18 | FC(F)(F)c1cnc2[nH]c(C3=CCNC3)cc2c1NCCCN1CCCC1 [Compound 120] | – | 1210 nM | –
19 | FC(F)(F)c1cnc2[nH]c(C3=CCCNC3)cc2c1NCCN1CCNCC1 [Compound 112] | – | 8 nM | –
20 | FC(F)(F)c1cnc2[nH]c(C3=CCNCC3)cc2c1NCCN1CCNCC1 [Compound 114] | – | 14 nM | –
21 | CS(=O)(=O)NC1CCN(C(=O)c2cc(-c3cnc4[nH]c(-c5ccc(F)cc5)cc4c3)cs2)C1 (stereo not shown) [Compound 9, N-(1-(4-(2-(4-Fluorophenyl)-1H-pyrrolo[2,3-b]pyridin-5-yl)thiophene-2-carbonyl)pyrrolidin-3-yl)methanesulfonamide] | – | – | 1.29 °C
22 | FC1(F)CN(c2c(C(F)(F)F)cnc3[nH]c(C4=CCCNC4)cc23)C1 [Compound 141] | – | 884 nM | –
23 | CN1CCC(c2cc3c(N4CC(F)(F)C4)c(C(F)(F)F)cnc3[nH]2)CC1 [Compound 96, 4-(3,3-difluoroazetidin-1-yl)-2-(1-methylpiperidin-4-yl)-5-(trifluoromethyl)-1H-pyrrolo[2,3-b]pyridine] | – | – | 3.09 °C
24 | CC(C)(C)OC(=O)N1CCCC(c2cc3cc(-c4csc(C(=O)NCC(F)(F)F)c4)cnc3[nH]2)C1 (stereo not shown) [Compound 43, tert-Butyl 3-(5-(5-((2,2,2-trifluoroethyl)carbamoyl)thiophen-3-yl)-1H-pyrrolo[2,3-b]-pyridin-2-yl)piperidine-1-carboxylate] | – | – | 4.2 °C
25 | FC(F)(F)c1cnc2[nH]c(C3=CCNC3)cc2c1NCCN1CCNCC1 [Compound 113] | – | 63 nM | –
26 | O=C(NCC(F)(F)F)c1cc(-c2cnc3[nH]c(C4=CCN(C5CCC(C(=O)O)CC5)CC4)cc3c2)cs1 (stereo not shown) [compound 142] | – | 88 nM | –
27 | FC(F)(F)c1cnc2[nH]c(C3=CCCNC3)cc2c1NCCCN1CCCC1 [Compound 119] | – | 1600 nM | –
28 | O=C(NCC1(O)CC1)c1cc(-c2cnc3[nH]c(C4=CCNC4)cc3c2)cs1 [Compound 109] | – | 80 nM | –
29 | CC(C)(C)OC(=O)N1CCC(c2cc3cc(-c4csc(C(=O)NCC(F)(F)F)c4)cnc3[nH]2)CC1 [Compound 40, tert-Butyl 4-(5-(5-((2,2,2-trifluoroethyl)carbamoyl)thiophen-3-yl)-1H-pyrrolo[2,3-b]-pyridin-2-yl)piperidine-1-carboxylate] | – | – | 1.63 °C
30 | FC1(F)CCN(c2c(C(F)(F)F)cnc3[nH]c(C4CCOCC4)cc23)CC1 [Compound 92, 4-(4,4-difluoropiperidin-1-yl)-2-(tetrahydro-2H-pyran-4-yl)-5-(trifluoromethyl)-1H-pyrrolo[2,3-b]pyridine] | – | – | 0.88 °C
31 | FC1(F)CN(c2c(C(F)(F)F)cnc3[nH]c(C4CCOCC4)cc23)C1 [Compound 85, 4-(3,3-difluoroazetidin-1-yl)-2-(tetrahydro-2H-pyran-4-yl)-5-(trifluoromethyl)-1H-pyrrolo[2,3-b]pyridine] | – | – | 0.54 °C
32 | FC(F)(F)c1cnc2[nH]c(C3=CCNC3)cc2c1NCCN1CCOCC1 [Compound 117] | – | 85 nM | –
